Patent US20230024096A1, “BIFUNCTIONAL COMPOUNDS FOR THE TREATMENT OF CANCER” (Hoffmann-La Roche Inc., priority 2019, published 2023)

Target: T1, SMARCA2 (Homo sapiens, UniProt P51531)
T1 construct: endogenous in cells; host or cells: HT1080 (CRISPR HiBiT knock-in clone, generated in house)
Assay: SMARCA2 HiBiT degradation assay (cellular)
Assay type: cell-based
Details: table head names A549; for DC50: 6 h incubation, HiBiT-tagged SMARCA2, luminescence read-out, read-out: HiBit A549 SMARCA2 IP (nM) 6 h; for Emax: A549, 6 h incubation, Emax = amount of residual protein remaining in the cell following compound treatment

T1 sequence (P51531 whole entry): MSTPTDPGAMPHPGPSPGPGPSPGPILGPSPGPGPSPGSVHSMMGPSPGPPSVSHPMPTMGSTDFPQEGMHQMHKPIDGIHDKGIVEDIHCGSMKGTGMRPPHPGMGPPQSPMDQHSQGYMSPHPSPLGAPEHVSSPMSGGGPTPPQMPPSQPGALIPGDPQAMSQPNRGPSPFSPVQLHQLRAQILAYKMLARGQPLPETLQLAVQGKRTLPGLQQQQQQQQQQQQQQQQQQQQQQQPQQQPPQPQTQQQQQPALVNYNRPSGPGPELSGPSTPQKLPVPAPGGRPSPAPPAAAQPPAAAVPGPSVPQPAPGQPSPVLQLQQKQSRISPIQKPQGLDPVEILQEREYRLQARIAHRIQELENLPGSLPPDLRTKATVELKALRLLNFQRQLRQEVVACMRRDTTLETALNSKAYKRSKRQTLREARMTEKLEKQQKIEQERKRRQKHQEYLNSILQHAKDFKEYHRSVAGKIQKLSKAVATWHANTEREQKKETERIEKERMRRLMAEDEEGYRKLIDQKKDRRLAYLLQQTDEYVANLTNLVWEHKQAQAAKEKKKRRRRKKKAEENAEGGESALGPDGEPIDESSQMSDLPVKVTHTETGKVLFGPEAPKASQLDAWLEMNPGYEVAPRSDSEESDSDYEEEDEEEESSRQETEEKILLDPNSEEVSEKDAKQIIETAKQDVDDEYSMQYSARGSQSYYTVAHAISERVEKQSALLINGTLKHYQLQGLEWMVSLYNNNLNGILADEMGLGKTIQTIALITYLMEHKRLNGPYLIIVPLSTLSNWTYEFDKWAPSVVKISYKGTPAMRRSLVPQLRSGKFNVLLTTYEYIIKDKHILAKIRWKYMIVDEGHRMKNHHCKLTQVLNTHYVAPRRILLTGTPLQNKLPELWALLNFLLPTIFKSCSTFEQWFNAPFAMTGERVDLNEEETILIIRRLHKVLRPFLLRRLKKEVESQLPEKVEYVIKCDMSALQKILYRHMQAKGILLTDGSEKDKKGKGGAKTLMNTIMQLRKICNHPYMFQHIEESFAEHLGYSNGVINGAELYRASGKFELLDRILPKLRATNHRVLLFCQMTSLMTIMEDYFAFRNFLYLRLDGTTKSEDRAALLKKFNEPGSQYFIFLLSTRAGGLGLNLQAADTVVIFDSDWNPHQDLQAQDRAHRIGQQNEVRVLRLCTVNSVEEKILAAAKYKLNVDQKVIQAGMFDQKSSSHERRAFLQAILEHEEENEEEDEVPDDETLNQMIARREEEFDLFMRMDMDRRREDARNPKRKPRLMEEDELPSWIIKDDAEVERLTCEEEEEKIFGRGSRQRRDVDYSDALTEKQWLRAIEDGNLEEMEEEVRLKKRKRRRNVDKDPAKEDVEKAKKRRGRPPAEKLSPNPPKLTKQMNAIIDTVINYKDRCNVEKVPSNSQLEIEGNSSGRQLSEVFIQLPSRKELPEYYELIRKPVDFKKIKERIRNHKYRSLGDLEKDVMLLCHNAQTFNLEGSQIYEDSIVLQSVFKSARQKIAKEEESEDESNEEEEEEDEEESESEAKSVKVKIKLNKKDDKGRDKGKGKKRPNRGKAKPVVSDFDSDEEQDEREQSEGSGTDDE

DC50 [nM] | Emax [%] | SMILES
65 | 50 | Nc1nnc(-c2ccccc2O)cc1OC1CCCN(c2ccc(N3CCN(C(=O)CCCCCCCCn4cc(CNc5cccc6c5C(=O)N(C5CCC(=O)NC5=O)C6=O)nn4)CC3)cc2)C1 (centres unmarked) [Example 3, 4-[[1-[9-[4-[4-[3-[3-amino-6-(2-hydroxyphenyl)pyridazin-4-yl]oxy-1-piperidyl]phenyl]piperazin-1-yl]-9-oxo-nonyl]triazol-4-yl]methylamino]-2-(2,6-dioxo-3-piperidyl)isoindoline-1,3-dione]
149 | 44 | Nc1nnc(-c2ccccc2O)cc1OC1CCCN(c2ccc(N3CCN(C(=O)CCCCCCCCCCCn4cc(CNc5cccc6c5C(=O)N(C5CCC(=O)NC5=O)C6=O)nn4)CC3)cc2)C1 (centres unmarked) [Example 4, 4-[[1-[12-[4-[4-[3-[3-amino-6-(2-hydroxyphenyl)pyridazin-4-yl]oxy-1-piperidyl]phenyl]piperazin-1-yl]-12-oxo-dodecyl]triazol-4-yl]methylamino]-2-(2,6-dioxo-3-piperidyl)isoindoline-1,3-dione]
66 | 60 | Nc1nnc(-c2ccccc2O)cc1N1CCN(c2cccc(OCCN3CCN(C(=O)CCCCCCNc4cccc5c4C(=O)N(C4CCC(=O)NC4=O)C5=O)CC3)c2)C2(CC2)C1 (centres unmarked) [Example 5, 4-[[7-[4-[2-[3-[7-[3-amino-6-(2-hydroxyphenyl)pyridazin-4-yl]-4,7-diazaspiro[2.5]octan-4-yl]phenoxy]ethyl]piperazin-1-yl]-7-oxo-heptyl]amino]-2-(2,6-dioxo-3-piperidyl)isoindoline-1,3-dione]
423 | 42 | Nc1nnc(-c2ccccc2O)cc1N1CCC2(CC1)CN(C(=O)CCCCCCCCCCCn1cc(CNc3cccc4c3C(=O)N(C3CCC(=O)NC3=O)C4=O)nn1)CCO2 (centres unmarked) [Example 7, 4-[[1-[12-[9-[3-amino-6-(2-hydroxyphenyl)pyridazin-4-yl]-1-oxa-4,9-diazaspiro[5.5]undecan-4-yl]-12-oxo-dodecyl]triazol-4-yl]methylamino]-2-(2,6-dioxo-3-piperidyl)isoindoline-1,3-dione]
254 | 65 | Nc1nnc(-c2ccccc2O)cc1OC1CCCN(c2ccc(N3CCN(C(=O)CCCCCCCCCCCCCCn4cc(CNc5cccc6c5C(=O)N(C5CCC(=O)NC5=O)C6=O)nn4)CC3)cc2)C1 (centres unmarked) [Example 8, 4-[[1-[15-[4-[4-[3-[3-amino-6-(2-hydroxyphenyl)pyridazin-4-yl]oxy-1-piperidyl]phenyl]piperazin-1-yl]-15-oxo-pentadecyl]triazol-4-yl]methylamino]-2-(2,6-dioxo-3-piperidyl)isoindoline-1,3-dione]
157 | 45 | Nc1nnc(-c2ccccc2O)cc1OC1CCCN(c2ccc(OCCN3CCN(C(=O)CCCCCCCCCCCn4cc(CNc5cccc6c5C(=O)N(C5CCC(=O)NC5=O)C6=O)nn4)CC3)cc2)C1 (centres unmarked) [Example 23, 4-[[1-[12-[4-[2-[4-[3-[3-amino-6-(2-hydroxyphenyl)pyridazin-4-yl]oxy-1-piperidyl]phenoxy]ethyl]piperazin-1-yl]-12-oxo-dodecyl]triazol-4-yl]methylamino]-2-(2,6-dioxo-3-piperidyl)isoindoline-1,3-dione]
256 | 56 | Nc1nnc(-c2ccccc2O)cc1OC1CCCN(c2ccc(OCCN3CCN(C(=O)CCCCCCCCCCCCCCn4cc(CNc5cccc6c5C(=O)N(C5CCC(=O)NC5=O)C6=O)nn4)CC3)cc2)C1 (centres unmarked) [Example 24, 4-[[1-[15-[4-[2-[4-[3-[3-amino-6-(2-hydroxyphenyl)pyridazin-4-yl]oxy-1-piperidyl]phenoxy]ethyl]piperazin-1-yl]-15-oxo-pentadecyl]triazol-4-yl]methylamino]-2-(2,6-dioxo-3-piperidyl)isoindoline-1,3-dione]
614 | 59 | Nc1nnc(-c2ccccc2O)cc1OC1CCCN(c2ccc(OCCN3CCN(C(=O)CCCCCCCCCCCCC(=O)N4CCN(c5ccc(NC6CCC(=O)NC6=O)cc5)CC4)CC3)cc2)C1 (centres unmarked) [Example 25, 3-[4-[4-[14-[4-[2-[4-[3-[3-amino-6-(2-hydroxyphenyl)pyridazin-4-yl]oxy-1-piperidyl]phenoxy]ethyl]piperazin-1-yl]-14-oxo-tetradecanoyl]piperazin-1-yl]anilino]piperidine-2,6-dione]
164 | 63 | Nc1nnc(-c2ccccc2O)cc1OC1CCCN(c2ccc(N3CCN(C(=O)CCCCCCCCN4CCN(c5ccc6c(c5)C(=O)N(C5CCC(=O)NC5=O)C6=O)CC4)CC3)cc2)C1 (centres unmarked) [Example 26, 5-[4-[9-[4-[4-[3-[3-amino-6-(2-hydroxyphenyl)pyridazin-4-yl]oxy-1-piperidyl]phenyl]piperazin-1-yl]-9-oxo-nonyl]piperazin-1-yl]-2-(2,6-dioxo-3-piperidyl)isoindoline-1,3-dione]
333 | 57 | Nc1nnc(-c2ccccc2O)cc1OC1CCCN(c2ccc(OCCN3CCN(C(=O)CCCCCCCCn4cc(CNc5cccc6c5C(=O)N(C5CCC(=O)NC5=O)C6=O)nn4)CC3)cc2)C1 (centres unmarked) [Example 27, 4-[[1-[9-[4-[2-[4-[3-[3-amino-6-(2-hydroxyphenyl)pyridazin-4-yl]oxy-1-piperidyl]phenoxy]ethyl]piperazin-1-yl]-9-oxo-nonyl]triazol-4-yl]methylamino]-2-(2,6-dioxo-3-piperidyl)isoindoline-1,3-dione]
91 | 48 | Nc1nnc(-c2ccccc2O)cc1OC1CCCN(c2ccc(N3CCN(C(=O)CCCCCCCCCn4cc(CNc5cccc6c5C(=O)N(C5CCC(=O)NC5=O)C6=O)nn4)CC3)cc2)C1 (centres unmarked) [Example 28, 4-[[1-[10-[4-[4-[3-[3-amino-6-(2-hydroxyphenyl)pyridazin-4-yl]oxy-1-piperidyl]phenyl]piperazin-1-yl]-10-oxo-decyl]triazol-4-yl]methylamino]-2-(2,6-dioxo-3-piperidyl)isoindoline-1,3-dione]
158 | 50 | Nc1nnc(-c2ccccc2O)cc1OC1CCCN(c2ccc(N3CCN(C(=O)CCCCCCCCCCn4cc(CNc5cccc6c5C(=O)N(C5CCC(=O)NC5=O)C6=O)nn4)CC3)cc2)C1 (centres unmarked) [Example 29, 4-[[1-[11-[4-[4-[3-[3-amino-6-(2-hydroxyphenyl)pyridazin-4-yl]oxy-1-piperidyl]phenyl]piperazin-1-yl]-11-oxo-undecyl]triazol-4-yl]methylamino]-2-(2,6-dioxo-3-piperidyl)isoindoline-1,3-dione]
92 | 63 | Nc1nnc(-c2ccccc2O)cc1N1CC(Oc2cccc(CN3CCN(C(=O)CCCCCCNc4cccc5c4C(=O)N(C4CCC(=O)NC4=O)C5=O)CC3)c2)C1 (centres unmarked) [Example 30, 4-[[7-[4-[[3-[1-[3-amino-6-(2-hydroxyphenyl)pyridazin-4-yl]azetidin-3-yl]oxyphenyl]methyl]piperazin-1-yl]-7-oxo-heptyl]amino]-2-(2,6-dioxo-3-piperidyl)isoindoline-1,3-dione]
281 | 62 | Nc1nnc(-c2ccccc2O)cc1N1CC(Oc2cccc(CN3CCN(C(=O)CCCCCCCCCNc4cccc5c4C(=O)N(C4CCC(=O)NC4=O)C5=O)CC3)c2)C1 (centres unmarked) [Example 32, 4-[[10-[4-[[3-[1-[3-amino-6-(2-hydroxyphenyl)pyridazin-4-yl]azetidin-3-yl]oxyphenyl]methyl]piperazin-1-yl]-10-oxo-decyl]amino]-2-(2,6-dioxo-3-piperidyl)isoindoline-1,3-dione]
57 | 34 | Nc1nnc(-c2ccccc2O)cc1OC1CCCN(c2ccc(N3CCN(CCCCCCCCCn4cc(CNc5cccc6c5C(=O)N(C5CCC(=O)NC5=O)C6=O)nn4)CC3)cc2)C1 (centres unmarked) [Example 37, 4-[[1-[9-[4-[4-[3-[3-amino-6-(2-hydroxyphenyl)pyridazin-4-yl]oxy-1-piperidyl]phenyl]piperazin-1-yl]nonyl]triazol-4-yl]methylamino]-2-(2,6-dioxo-3-piperidyl)isoindoline-1,3-dione]
718 | 63 | Nc1nnc(-c2ccccc2O)cc1N1CC(Oc2cccc(N3CCN(C(=O)CCCCCCCCCNc4cccc5c4C(=O)N(C4CCC(=O)NC4=O)C5=O)CC3)c2)C1 (centres unmarked) [Example 39, 4-[[10-[4-[3-[1-[3-amino-6-(2-hydroxyphenyl)pyridazin-4-yl]azetidin-3-yl]oxyphenyl]piperazin-1-yl]-10-oxo-decyl]amino]-2-(2,6-dioxo-3-piperidyl)isoindoline-1,3-dione]
133 | 61 | Nc1nnc(-c2ccccc2O)cc1OC1CCCN(c2ccc(N3CCN(C(=O)CCCCCCCCN4CCC(Oc5ccc6c(c5)C(=O)N(C5CCC(=O)NC5=O)C6=O)CC4)CC3)cc2)C1 (centres unmarked) [Example 44, 5-[[1-[9-[4-[4-[3-[3-amino-6-(2-hydroxyphenyl)pyridazin-4-yl]oxy-1-piperidyl]phenyl]piperazin-1-yl]-9-oxo-nonyl]-4-piperidyl]oxy]-2-(2,6-dioxo-3-piperidyl)isoindoline-1,3-dione]
122 | 46 | Nc1nnc(-c2ccccc2O)cc1N1CCN(c2ccccc2)C(C(=O)NC2CCN(C(=O)CC3CCN(c4ccc5c(c4)C(=O)N(C4CCC(=O)NC4=O)C5=O)CC3)CC2)C1 (centres unmarked) [Example 53, 4-[3-amino-6-(2-hydroxyphenyl)pyridazin-4-yl]-N-[1-[2-[1-[2-(2,6-dioxo-3-piperidyl)-1,3-dioxo-isoindolin-5-yl]-4-piperidyl]acetyl]-4-piperidyl]-1-phenyl-piperazine-2-carboxamide]

SMILES | DC50 [nM] | Emax [%]
Nc1nnc(-c2ccccc2O)cc1N1CC2CCC(C1)N2c1cccc(OCCN2CCN(C(=O)CCCCCCCCNc3cccc4c3C(=O)N(C3CCC(=O)NC3=O)C4=O)CC2)c1 (centres unmarked) [Example 6, 4-[[9-[4-[2-[3-[3-[3-amino-6-(2-hydroxyphenyl)pyridazin-4-yl]-3,8-diazabicyclo[3.2.1]octan-8-yl]phenoxy]ethyl]piperazin-1-yl]-9-oxo-nonyl]amino]-2-(2,6-dioxo-3-piperidyl)isoindoline-1,3-dione] | 334 | 58
